Target: recombinant DYRK1A kinase (Homo sapiens (Human), UniProt Q13627)
Assay: DYRK1A kinase assay (Ser/Thr 18 peptide Z-lyte FRET assay)
Assay type: biochemical
Settings: DYRK1A 0.25 μg/mL, ATP 15 μM, Ser/Thr peptide 18 4 μM; one hour at room temperature; 11-point dose-response, duplicate
How it was run: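 Z-lyte FRET assay on Ser/Thr 18 peptide, kinase activity read as coumarin/fluorescein emission ratio; compounds incubated 1 h at room temperature, then development reagent 1 h, in duplicate. Phosphorylated and unphosphorylated peptide served as controls; IC50 by non-linear regression of dose-response curves.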

Row | Compound | IC50
1 | CNc1nc(N[C@@H]2CCN(C)CC2(F)F)nn2ccc(-c3ccc4nnn(CC(F)(F)F)c4n3)c12 [Compound 1034, (R)—N^2-(3,3-Difluoro-1-methylpiperidin-4-yl)-N^4-methyl-5-(3-(2,2,2-trifluoroethyl)-3H-[1,2,3]triazolo[4,5-b]pyridin-5-yl)pyrrolo[2,1-f][1,2,4]triazine-2,4-diamine] | 1.9 nM
2 | CNc1nc(N[C@@H]2CCN(C3COC3)CC2(F)F)nn2ccc(-c3ccc4nnn(CC(F)(F)F)c4n3)c12 [Compound 1036, (R)—N^2-(3,3-Difluoro-1-(oxetan-3-yl)piperidin-4-yl)-N^4-methyl-5-(3-(2,2,2-trifluoroethyl)-3H-[1,2,3]triazolo[4,5-b]pyridin-5-yl)pyrrolo[2,1-f][1,2,4]triazine-2,4-diamine] | 1 nM
3 | N^2-(4,4-Difluorocyclohexyl)-N^4-methyl-5-(3-(2,2,2-trifluoroethyl)-3H-[1,2,3]triazolo[4,5-b]pyridin-5-yl)pyrrolo[2,1-f][1,2,4]triazine-2,4-diamine [Compound 1030] | 193 nM
4 | N^4-Methyl-N^2-(1-(oxetan-3-yl)piperidin-4-yl)-5-(pyrazolo[1,5-a]pyridin-5-yl)pyrrolo[2,1-f][1,2,4]triazine-2,4-diamine [Compound 2] | 270 nM
